# Structures can show the parent of a compound that is named as a salt.
# Assays:
# hCA I = target: T1, hCA I (Homo sapiens, UniProt P00915); assay: stopped flow CO2 hydrase assay, CA I; format: biochemical; conditions: mean from 3 different assays, errors ±5–10%
# T1 construct: made in house
# Method: (§1) An Applied Photophysics stopped-flow instrument was used for assaying the CA catalyzed CO2 hydration activity. Phenol red (at a concentration of 0.2 mM) was used as an indicator, working at the absorbance maximum of 557 nm, with 20 mM HEPES (pH 7.5) as buffer, and 20 mM Na2SO4 (for maintaining constant the ionic strength), following the initial rates of the CA-catalyzed CO2 hydration reaction for a period of 10–100 s. The CO2 concentrations ranged from 1.7 to 17 mM for the determination of the kinetic parameters and inhibition constants. For each inhibitor, at least six traces of the initial 5–10% of the reaction were used for determining the initial velocity. The uncatalyzed rates were determined in the same manner and subtracted from the total observed rates. Stock solutions of inhibitor (0.1 mM) were prepared in distilled–deionized water, and dilutions up to 0.01 nM were done thereafter with the assay buffer. Inhibitor and enzyme solutions were preincubated together for 45 min at room temperature prior to assay in order to allow for the formation of the E–I complex. The inhibition constants were obtained by non-linear least-squares methods using PRISM 3 and the Cheng–Prusoff equation, as reported earlier, representing the mean from at least three different determinations. […] All CA isoforms were recombinant ones obtained in-house, as reported earlier.
# hCA IX = target: T2, hCA IX (Homo sapiens, UniProt Q16790); assay: stopped flow CO2 hydrase assay, CA IX; format: biochemical; conditions: for Selectivity index (SI) CA I/CA IX / Selectivity index (SI) CA II/CA IX: ratio between KI values; for Ki: stopped flow CO2 hydrase assay, mean from 3 different assays, errors ±5–10%
# T2 construct: made in house
# Method: as §1
# hCA XII = target: T3, hCA XII (Homo sapiens, UniProt O43570); assay: stopped flow CO2 hydrase assay, CA XII; format: biochemical; conditions: for Selectivity index (SI) CA I/CA XII / Selectivity index (SI) CA II/CA XII: ratio between KI values; for Ki: stopped flow CO2 hydrase assay, mean from 3 different assays, errors ±5–10%
# T3 construct: made in house
# Method: as §1
# hCA IV = target: T4, hCA IV (Homo sapiens, UniProt P22748); assay: stopped flow CO2 hydrase assay, CA IV; format: biochemical; conditions: mean from 3 different assays, errors ±5–10%
# T4 construct: made in house
# Method: as §1
# hCA II = target: T5, hCA II (Homo sapiens, UniProt P00918); assay: stopped flow CO2 hydrase assay, CA II; format: biochemical; conditions: mean from 3 different assays, errors ±5–10%
# T5 construct: made in house
# Method: as §1
# T3 sequence (O43570 25-354): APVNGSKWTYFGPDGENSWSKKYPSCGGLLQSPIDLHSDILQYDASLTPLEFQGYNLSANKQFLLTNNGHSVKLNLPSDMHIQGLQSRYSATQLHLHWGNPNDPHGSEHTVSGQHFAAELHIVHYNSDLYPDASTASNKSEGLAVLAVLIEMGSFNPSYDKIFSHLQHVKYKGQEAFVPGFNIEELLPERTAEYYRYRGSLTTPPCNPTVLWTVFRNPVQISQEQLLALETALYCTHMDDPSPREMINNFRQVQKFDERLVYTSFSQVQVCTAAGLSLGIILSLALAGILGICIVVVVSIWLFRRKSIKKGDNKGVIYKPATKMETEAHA
# T1 sequence (P00915 whole entry): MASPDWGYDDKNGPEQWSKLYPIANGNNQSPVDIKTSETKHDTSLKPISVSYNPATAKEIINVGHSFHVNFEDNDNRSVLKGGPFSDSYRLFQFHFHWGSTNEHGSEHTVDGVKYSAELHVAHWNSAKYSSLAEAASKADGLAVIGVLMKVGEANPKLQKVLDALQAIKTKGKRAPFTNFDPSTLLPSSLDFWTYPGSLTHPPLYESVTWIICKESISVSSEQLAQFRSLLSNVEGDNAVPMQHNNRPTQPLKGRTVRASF
# T4 sequence (P22748 19-312): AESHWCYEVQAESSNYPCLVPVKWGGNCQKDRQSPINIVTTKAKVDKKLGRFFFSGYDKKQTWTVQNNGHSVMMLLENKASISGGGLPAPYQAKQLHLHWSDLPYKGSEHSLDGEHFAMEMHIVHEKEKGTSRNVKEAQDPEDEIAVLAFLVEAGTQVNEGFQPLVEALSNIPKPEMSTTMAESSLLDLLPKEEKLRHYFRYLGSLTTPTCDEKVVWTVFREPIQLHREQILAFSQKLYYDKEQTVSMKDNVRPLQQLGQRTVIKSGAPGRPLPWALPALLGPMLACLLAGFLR
Compound,melting point,Ki (hCA I),Selectivity index (SI) CA I/CA IX (hCA IX),Selectivity index (SI) CA II/CA IX (hCA IX),Ki (hCA IX),Selectivity index (SI) CA I/CA XII (hCA XII),Selectivity index (SI) CA II/CA XII (hCA XII),Ki (hCA XII),Ki (hCA IV),Ki (hCA II)
CC(=O)Nc1cc(S(N)(=O)=O)ccc1OCc1cn(CCCCS(=O)(=O)O)nn1 (as salt: sodium) [Compound 50],> 300 °C,,,,,,,,,
CCC(=O)Nc1cc(S(N)(=O)=O)ccc1OCc1cn(CCCCS(=O)(=O)O)nn1 (as salt: sodium) [Compound 51],> 300 °C,,,,,,,,,
C#CCNC(=S)Nc1ccc(S(N)(=O)=O)cc1 [Compound 29],235 to 238 °C,,,,,,,,,
"NS(=O)(=O)c1ccc(-c2cn(CCCS(=O)(=O)[O-])nn2)cc1.[Na+] [Compound 30, Sodium 3-(4-(4-sulfamoylphenyl)-1H-1,2,3-triazol-1-yl)propane-1-sulfonate]",> 300 °C,83.5 nM,2.3,0.09,35.9 nM,12,0.48,6.7 nM,429 nM,3.2 nM
"NS(=O)(=O)c1ccc(OCc2cn(CCCS(=O)(=O)[O-])nn2)cc1.[Na+] [Compound 31, Sodium 3-(4-((4-sulfamoylphenoxy)methyl)-1H-1,2,3-triazol-1-yl)propane-1-sulfonate]",290 to 293 °C,82.7 nM,1.8,0.02,44.4 nM,1.7,0.02,47.7 nM,38.3 nM,0.9 nM
"NS(=O)(=O)c1ccc(NCc2cn(CCCS(=O)(=O)[O-])nn2)cc1.[Na+] [Compound 32, Sodium 3-(4-(((4-sulfamoylphenyl)amino)methyl)-1H-1,2,3-triazol-1-yl)propane-1-sulfonate]",> 300 °C,460 nM,1.0,0.01,459 nM,1.1,0.01,433 nM,43.1 nM,4.2 nM
"NS(=O)(=O)c1ccc(CNC(=O)NCc2cn(CCCS(=O)(=O)[O-])nn2)cc1.[Na+] [Compound 35, Sodium 3-(4-((3-(4-sulfamoylbenzyl)ureido)methyl)-1H-1,2,3-triazol-1-yl)propane-1-sulfonate]",295 to 297 °C,807 nM,11,1.9,71.8 nM,49,8.4,16.4 nM,50.2 nM,139 nM
"NS(=O)(=O)c1ccc(CCNC(=O)NCc2cn(CCCS(=O)(=O)[O-])nn2)cc1.[Na+] [Compound 36, Sodium 3-(4-((3-(4-sulfamoylphenethyl)ureido)methyl)-1H-1,2,3-triazol-1-yl)propane-1-sulfonate]",217 to 219 °C,76.8 nM,0.3,0.15,282 nM,8.8,4.9,8.7 nM,870 nM,43.1 nM
"NS(=O)(=O)c1ccc(NC(=S)NCc2cn(CCCS(=O)(=O)[O-])nn2)cc1.[Na+] [Compound 37, Sodium 3-(4-((3-(4-sulfamoylphenyl)thioureido)methyl)-1H-1,2,3-triazol-1-yl)propane-1-sulfonate]",230 to 232 °C,79.9 nM,,0.42,51.2 nM,8.5,2.2,9.4 nM,78.1 nM,21.4 nM
"CCC(=O)Nc1cc(S(N)(=O)=O)ccc1OCc1cn(CCCS(=O)(=O)[O-])nn1.[Na+] [Compound 40, Sodium 3-(4-((2-propionamido-4-sulfamoylphenoxy)methyl)-1H-1,2,3-triazol-1-yl)propane-1-sulfonate]",> 300 °C,9160 nM,167,0.12,54.8 nM,194,0.14,47.1 nM,322 nM,6.6 nM
CC(=O)Nc1cc(S(N)(=O)=O)ccc1OCc1cn(CCCCS(=O)(=O)O)nn1 [Compound 50],,7690 nM,,3.2,82.5 nM,,6.5,40.6 nM,3560 nM,263 nM
CCC(=O)Nc1cc(S(N)(=O)=O)ccc1OCc1cn(CCCCS(=O)(=O)O)nn1 [Compound 51],,3650 nM,,,236 nM,,,7.3 nM,> 10000 nM,39.9 nM
"Sodium 3-(4-((3-(4-sulfamoylbenzyl)ureido)methyl)-1H-1,2,3-triazol-1-yl)butane-1-sulfonate [Compound 46]",,651 nM,,,133 nM,,,31.3 nM,636 nM,332 nM
"Sodium 3-(4-((3-(4-sulfamoylphenethyl)ureido)methyl)-1H-1,2,3-triazol-1-yl)butane-1-sulfonate [Compound 47]",,82.3 nM,,,68.1 nM,,,64 nM,473 nM,41.3 nM
"Sodium 3-(4-((3-(4-sulfamoylphenyl)thioureido)methyl)-1H-1,2,3-triazol-1-yl)butane-1-sulfonate [Compound 48]",,62.4 nM,,,8.8 nM,,,31.5 nM,557 nM,5.8 nM
"Sodium 3-(4-((3-(4-sulfamoylphenyl)ureido)methyl)-1H-1,2,3-triazol-1-yl)butane-1-sulfonate [Compound 45]",,496 nM,1.3,0.11,372 nM,14,1.2,33.6 nM,150 nM,41.1 nM
"Sodium 3-(4-((4-(3-(4-sulfamoylphenyl)ureido)phenoxy)methyl)-1H-1,2,3-triazol-1-yl)butane-1-sulfonate [Compound 49]",,91.9 nM,,,32.2 nM,,,53.2 nM,4540 nM,18.8 nM
"Sodium 3-(4-((4-sulfamoylbenzamido)methyl)-1H-1,2,3-triazol-1-yl)butane-1-sulfonate [Compound 44]",,168 nM,3.3,0.44,50.7 nM,5.2,0.70,32.2 nM,651 nM,22.5 nM
"Sodium 3-(4-((4-sulfamoylphenoxy)methyl)-1H-1,2,3-triazol-1-yl)butane-1-sulfonate [Compound 42]",,96.8 nM,1.6,0.49,60.2 nM,4.1,1.2,23.1 nM,750 nM,29.5 nM
